According to patent US20220073521A1, “PYRIMIDINE AND FIVE-MEMBERED NITROGEN HETEROCYCLE DERIVATIVE, PREPARATION METHOD THEREFOR, AND MEDICAL USES THEREOF” (Tuojie Biotech (Shanghai) Co., Ltd., priority 2018, published 2022):
Read-outs that look alike come from different tables or passages of the source.

Tests used:
[1] = biological target: T1, SHP2 wild-type phosphatase (recombinantly expressed full-length SHP2, aa 1-593) (Homo sapiens, UniProt Q06124); assay: In vitro activity on SHP2 wild-type phosphatase (DiFMUP fluorescence); conditions: wild-type full-length SHP2, activated polypeptide IRS1 0.5 nM, DiFMUP 30 μM;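 note: enzyme preincubated at room temperature, then DiFMUP reaction run at room temperature and halted with SDS, potency derived from a logistic curve fit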
T1 sequence (Q06124 1-593): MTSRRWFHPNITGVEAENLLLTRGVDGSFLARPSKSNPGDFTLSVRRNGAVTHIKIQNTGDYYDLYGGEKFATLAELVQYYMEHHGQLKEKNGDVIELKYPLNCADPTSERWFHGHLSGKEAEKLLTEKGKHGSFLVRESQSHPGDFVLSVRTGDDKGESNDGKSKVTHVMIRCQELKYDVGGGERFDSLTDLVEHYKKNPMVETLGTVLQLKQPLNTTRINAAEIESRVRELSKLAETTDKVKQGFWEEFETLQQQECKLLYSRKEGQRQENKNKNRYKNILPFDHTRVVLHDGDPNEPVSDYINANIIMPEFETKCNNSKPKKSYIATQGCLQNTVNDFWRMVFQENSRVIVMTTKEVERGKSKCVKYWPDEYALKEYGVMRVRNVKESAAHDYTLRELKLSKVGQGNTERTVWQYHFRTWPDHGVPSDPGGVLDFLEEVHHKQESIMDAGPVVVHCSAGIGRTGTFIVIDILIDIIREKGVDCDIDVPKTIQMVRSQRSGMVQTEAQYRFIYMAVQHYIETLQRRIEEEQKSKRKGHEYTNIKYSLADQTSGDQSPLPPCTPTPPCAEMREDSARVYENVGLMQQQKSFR

[2] = biological target: T2, hERG potassium channel (Homo sapiens, UniProt Q12809); assay: hERG current inhibition experiment (manual patch clamp, CHO hERG cells); assay type: cell-based; conditions: whole-cell patch clamp, tail current
T2 construct: host or cells: CHO hERG cells
Description: In this experiment, whole-cell current recording was performed using a manual patch clamp system (HEKA EPC-10 signal amplification and digital conversion system, purchased from HEKA Electronic, Germany). The round glass slide of which surface CHO hERG cells (provided by Sophion Bioscience Inc., Denmark, the cell generation number was P21) were grown on was placed in an electrophysiological recording slot under an inverted microscope. The recording slot was continuously perfused with extracellular fluid (approximately 1 mL per minute). Conventional whole-cell patch clamp current recording technique was used in the experiment. The experiments were performed at normal room temperature (˜25° C.). The cells were clamped at a voltage of −80 mV. Cell patch clamp voltage was depolarized to +20 mV to activate hERG potassium channel, and to −50 mV after 5 seconds to eliminate inactivation and generate tail currents. The tail current peak was used as a value of hERG current. When the hERG potassium current recorded in the above steps became steady under continuous perfusion of the extracellular fluid in the recording slot, the drug to be tested could be added to the perfusion, until the inhibition effect of the drug on hERG current reached a steady state. Generally, the overlapping of most recent three consecutive current recording lines was used as a criterion to determine whether the state was stable. After reaching the steady state, the recording slot was perfused with extracellular fluid until the hERG current returned to the value before the drug adding. The test data was analyzed by HEKA Patchmaster (V2x73.2), Microsoft Excel and the data analysis software provided by Graphpad Prism 5.0.

[3] = system: KYSE-520 cells; assay: KYSE-520 cell proliferation experiment (CellTiter-Glo, 7 days); assay type: cell-based; conditions: Homo sapiens
Description: The treated cell plate was incubated at 37° C., 5% CO2 for 7 days. CellTiter-Glo (Promega, G7573) was used to determine the number of viable cells in each well of the treated plate. 100 μL of the detection reagent was added to each well, and the plate was incubated at room temperature for 10 minutes. Then, the […] in each well was measured with Envision plate reader (PerkinElmer). […] The IC50 value was further calculated as the compound concentration required for 50% proliferation inhibition in the best-fit curve with […].

[4] = system: p-ERK in KYSE-520 cells; assay: Determination of p-ERK in KYSE-520 cells (HTRF); assay type: cell-based; conditions: Homo sapiens, KYSE-520, 2 h
Description: KYSE-520 cells (Nanjing Cobioer Biosciences CO., Ltd.) in the logarithmic growth phase were inoculated (30,000 cells/well) in 1640 medium containing 10% of FBS, and adhered in a 96-well plate overnight (5% CO2, 37° C.). […] The cell culture was stopped with cell lysate. The level of phosphorylated ERK in KYSE-520 cells was determined by a method based on homogeneous time-resolved fluorescence HTRF (Cisbio, 64ERKPEG). The fluorescence values (Ex337 nm/Em625/665 nm) were read on the compatible HTRF reader (MD SpectraMax).

[5] = Pharmacokinetics assay in rats; assay type: in vivo, SD rats; conditions: rat; for AUC: read-out: Area under curve AUC; for half-life: read-out: Half-life T1/2 (converted)
Description: Rats were used as test animals. The drug concentration in plasma at different time points was determined by LC/MS/MS method after intravenous administration or intragastrical administration of the compound of the present invention to rats. The pharmacokinetic behavior of the compound of the present invention was studied and evaluated in rats.
The atropisomer with a RT of 1.495 minutes in Examples 3 and 4, compounds of Example 17, Example 41 and Example 43.
Healthy male SD rats (6-8 weeks old), 3 rats per group.
Intravenous administration: A certain amount of the test compound was weighed, to which 10% by volume of N,N-dimethylacetamide, 33% by volume of triethylene glycol and 57% by volume of water were added to prepare a 1 mg/mL colorless, clear and transparent solution;
Intragastrical administration: A certain amount of the test compound was weighed, to which 0.5% by mass of hypromellose, 0.1% by volume of Tween 80 and 99.4% by volume of water were added to prepare a 1 mg/mL white suspension.
After an overnight fast, the SD rats were intravenously administered the test compound at an administration dose of 1 mg/kg, or intragastrically administered the test compound at an administration dose of 5 mg/kg.
(§1) The rats were intravenously administered the compound of the present invention. 0.2 ml of blood was taken from the jugular vein at 0.083, 0.25, 0.5, 1, 2, 4, 8 and 24 hours after the administration. The samples were placed in tubes containing EDTA-K2, and centrifuged at 4000 rpm and 4° C. for 5 minutes to separate the blood plasma. The plasma samples were stored at −75° C.
as §1, with “Or, the rats” for “The rats”, “were intragastrically” for “were intravenously”, “at” for “at 0.083,”
The content of the test compound in the plasma of rat after intragastrical administration of the test compound at different concentrations was determined: 50 μL of rat plasma at each time after administration was taken, to which 200 μL of a solution (50 ng/mL) of internal standard dexamethasone in acetonitrile was added. The plasma was vortex-mixed for 30 seconds, and centrifuged at 4700 rpm and 4° C. for 15 minutes. The supernatant was taken from the plasma samples, and a three-fold dilution was carried out by adding water. 2.0 μL of the supernatant was used for LC/MS/MS analysis.

T2 sequence (Q12809 whole entry): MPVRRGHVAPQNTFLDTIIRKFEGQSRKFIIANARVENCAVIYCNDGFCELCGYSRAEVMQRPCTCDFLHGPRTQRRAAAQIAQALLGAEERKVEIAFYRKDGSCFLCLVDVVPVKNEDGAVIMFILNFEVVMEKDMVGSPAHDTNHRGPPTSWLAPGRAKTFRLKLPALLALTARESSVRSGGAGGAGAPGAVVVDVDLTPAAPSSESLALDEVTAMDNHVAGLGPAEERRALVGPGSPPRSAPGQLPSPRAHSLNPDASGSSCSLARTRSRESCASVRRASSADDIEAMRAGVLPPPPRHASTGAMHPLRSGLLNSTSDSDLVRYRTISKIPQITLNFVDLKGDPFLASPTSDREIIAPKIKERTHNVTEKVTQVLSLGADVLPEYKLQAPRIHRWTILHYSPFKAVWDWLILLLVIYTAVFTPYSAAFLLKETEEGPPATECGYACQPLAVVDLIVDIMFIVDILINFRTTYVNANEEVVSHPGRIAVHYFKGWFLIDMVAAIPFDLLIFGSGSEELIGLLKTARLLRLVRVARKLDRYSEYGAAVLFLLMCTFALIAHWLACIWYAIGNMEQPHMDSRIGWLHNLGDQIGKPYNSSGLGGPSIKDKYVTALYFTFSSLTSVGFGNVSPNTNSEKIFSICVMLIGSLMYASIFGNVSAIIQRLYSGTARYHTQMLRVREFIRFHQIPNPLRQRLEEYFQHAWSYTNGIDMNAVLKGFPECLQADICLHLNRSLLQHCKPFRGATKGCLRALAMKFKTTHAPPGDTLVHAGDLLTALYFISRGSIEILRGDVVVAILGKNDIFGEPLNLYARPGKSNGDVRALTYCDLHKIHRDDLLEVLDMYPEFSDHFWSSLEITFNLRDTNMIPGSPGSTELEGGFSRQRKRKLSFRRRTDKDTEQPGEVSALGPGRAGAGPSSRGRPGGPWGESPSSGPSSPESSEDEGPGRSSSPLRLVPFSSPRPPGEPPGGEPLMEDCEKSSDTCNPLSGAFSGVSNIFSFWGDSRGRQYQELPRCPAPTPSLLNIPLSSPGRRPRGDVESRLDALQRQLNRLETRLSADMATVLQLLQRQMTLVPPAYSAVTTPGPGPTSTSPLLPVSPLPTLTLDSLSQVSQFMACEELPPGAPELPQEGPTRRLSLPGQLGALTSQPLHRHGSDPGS

Row | Compound | IC50 [1] [nM] | IC50 [2] [nM] | IC50 [3] [nM] | IC50 [4] [nM] | AUC ([5]; male, SD, plasma, IV 1 mg/kg) [ng·h/mL] | clearance ([5]; male, SD, plasma, IV 1 mg/kg, read-out: Clearance CL_obs) [mL/min/kg] | half-life ([5]; male, SD, plasma, IV 1 mg/kg) [h] | bioavailability ([5]; male, SD, plasma, PO 5 mg/kg vs IV 1 mg/kg, read-out: Bioavailability F) [%] | AUC ([5]; male, SD, plasma, PO 5 mg/kg) [ng·h/mL] | half-life ([5]; male, SD, plasma, PO 5 mg/kg) [h] | Cmax ([5]; male, SD, plasma, PO 5 mg/kg, read-out: Maximum plasma concentration Cmax) [ng/mL] | Apparent distribution volume Vss_obs ([5]; IV 1 mg/kg) [L/kg]
1 | Cc1nc(N2CCC3(CC2)CO[C@@H](C)[C@H]3N)n2cnnc2c1-c1cccc(Cl)c1Cl [Example 9, (3S,4S)-8-(8-(2,3-Dichlorophenyl)-7-methyl-[1,2,4]triazolo[4,3-c]pyrimidin-5-yl)-3-methyl-2-oxa-8-azaspiro[4.5]decan-4-amine] | 3.2 | 1910 | 785 | 285 | – | – | – | – | – | – | – | –
2 | C[C@@H]1OCC2(CCN(c3ncc(Sc4cccnc4C(F)(F)F)c4nccn34)CC2)[C@@H]1N [Example 17, (3S,4S)-3-Methyl-8-(8-((2-(trifluoromethyl)pyridin-3-yl)thio)imidazo[1,2-c]pyrimidin-5-yl)-2-oxa-8-azaspiro[4.5]decan-4-amine] | 4.2 | 12300 | 179 | 32.3 | 764 ± 196 | 21.5 ± 5.2 | 2.83 ± 0.93 | 80.3 ± 8.5 | 3210 ± 351 | 3.42 ± 0.37 | 408 ± 77 | 3.8 ± 0.1
3 | C[C@@H]1OCC2(CCN(c3nc(N)c(Sc4cccnc4C(F)(F)F)c4nccn34)CC2)[C@@H]1N [Example 24, (3S,4S)-8-(7-Amino-8-((2-(trifluoromethyl)pyridin-3-yl)thio)imidazo[1,2-c]pyrimidin-5-yl)-3-methyl-2-oxa-8-azaspiro[4.5]decan-4-amine] | 4.4 | > 30000 | 75.9 | 11 | – | – | – | – | – | – | – | –
4 | N[C@@H]1c2cccnc2CC12CCN(c1ncc(Sc3ccnc(NC4CC4)c3Cl)c3nccn13)CC2 [Example 36, (S)-1′-(8-((3-Chloro-2-(cyclopropylamino)pyridin-4-yl)thio)imidazo[1,2-c]pyrimidin-5-yl)-5,7-dihydrospiro[cyclopenta[b]pyridine-6,4′-piperidin]-5-amine] | 2.6 | 3970 | 40.5 | 8 | – | – | – | – | – | – | – | –
5 | Cc1nc(N2CCC3(CC2)Cc2ncccc2[C@H]3N)n2ccnc2c1Sc1ccnc(N)c1Cl [Example 42, (S)-1′-(8-((2-Amino-3-chloropyridin-4-yl)thio)-7-methylimidazo[1,2-c]pyrimidin-5-yl)-5,7-dihydrospiro[cyclopenta[b]pyridine-6,4′-piperidin]-5-amine] | 1.9 | > 30000 | 65.1 | 20.2 | – | – | – | – | – | – | – | –
